Measurements from the NIST ThermoML archive (doi:10.1021/acs.jced.6b00606).
± gives the expanded uncertainty stated by the source.

How the values were obtained:
[1] = Liquid; for speed of sound: 100 kPa, Frequency=3 MHz, Sing-around technique in a fixed-path interferometer; for mass density: 101.33 kPa, Vibrating tube method
[2] = molar heat capacity at constant pressure; settings: 101.33 kPa, Liquid, Extra sensitive DSC

Structure (SMILES) | speed of sound ([1]; 293.15 K) [m/s] | mass density ([1]; 293.15 K) [kg/m3] | speed of sound ([1]; 298.15 K) [m/s] | mass density ([1]; 298.15 K) [kg/m3] | speed of sound ([1]; 303.15 K) [m/s] | mass density ([1]; 303.15 K) [kg/m3] | speed of sound ([1]; 308.15 K) [m/s] | mass density ([1]; 308.15 K) [kg/m3] | molar heat capacity at constant pressure ([2]; 293.15 K) [J/K/mol] | molar heat capacity at constant pressure ([2]; 298.15 K) [J/K/mol] | molar heat capacity at constant pressure ([2]; 303.15 K) [J/K/mol] | molar heat capacity at constant pressure ([2]; 308.15 K) [J/K/mol]
C1COCCO1 [1,4-dioxane] | 1367.8 ± 1.5 | 1033.59 ± 1 | 1346 ± 1.5 | 1027.94 ± 1 | 1324.4 ± 1.5 | 1022.28 ± 1 | 1302.5 ± 1.5 | 1016.59 ± 1 | 151.62 ± 5.9 | 152.76 ± 5.9 | 153.92 ± 6 | 155.09 ± 6
O=C1CCCCCC1 [cycloheptanone] | 1477.3 ± 1.6 | 951.85 ± 1 | 1455 ± 1.6 | 947.62 ± 1 | 1432.4 ± 1.6 | 943.38 ± 1 | 1409.6 ± 1.6 | 939.14 ± 1 | 201.11 ± 7.8 | 202.01 ± 7.8 | 203.21 ± 7.9 | 204.51 ± 7.9
O=C1CCCCC1 [cyclohexanone] | 1431.2 ± 1.3 | 947.38 ± 1 | 1415.5 ± 1.3 | 942.92 ± 1 | 1395.1 ± 1.3 | 938.07 ± 1 | 1375.1 ± 1.3 | 933.19 ± 1 | 176.17 ± 6.8 | 178.27 ± 6.9 | 180.38 ± 7 | 182.46 ± 7.1
C1CCOCC1 [tetrahydropyran] | 1293 ± 1.4 | 884.23 ± 1 | 1269.7 ± 1.4 | 879.09 ± 1 | 1246.7 ± 1.4 | 873.91 ± 1 | 1224.3 ± 1.4 | 868.75 ± 1 | 148.03 ± 5.7 | 149.68 ± 5.8 | 151.18 ± 5.9 | 153.01 ± 5.9
